The results in this text go back to EP0840781B1, “METHODS AND DEVICES FOR THE REMOVAL OF PSORALENS FROM BLOOD PRODUCTS” (Cerus Corporation, priority 1995, dated 1996).

Read-outs that look alike come from different tables or passages of the source. Some results are limits rather than exact numbers.

In one series the test system is Pseudomonas. As to the kind of experiment: Bacterial inactivation by compound plus UVA, colony forming units. It counts as cell-based. The conditions noted are these: 16 µM; 5 J/cm^2 irradiation; starting titer 6.5 logs. The procedure: In this example bacterial inactivation by the photoreactive nucleic acid binding compounds described herein was measured as a function of the ability of the bacteria to subsequently replicate. A gram negative bacteria was chosen as representative of the more difficult bacterial strains to inactivate.
The bacteria a strain of Pseudomonas, was inoculated into LB with a sterile loop and grown overnight in a shaker at 37°C. Based on the approximation that one OD at 610 nm is equivalent to 5 x 10^8 colony forming units (cfu)/mL, a 1:10 dilution of the culture was measured on a spectrophotometer. (manufactured by Shimatsu). The bacterial culture was added to a solution of 15% fetal bovine serum in DMEM to a final bacteria concentration of approximately 10^6/mL. An aliquot (0.8 mL) was transferred to a 1.5 mL snap-top polyethylene tube. An aliquot (0.004-0.040 mL) of the test compound stock solution prepared in water, ethanol or dimethylsulfoxide at 0.80-8.0 mM was added to the tube. Compounds were tested at a concentration of 16 µM. The tubes were placed in a light device as described in EXAMPLE I and irradiated with 1.3 J/cm^2, 1.2 J/cm^2, and finally 2.5 J/cm^2, for a total of 5 J/cm^2. 150 µL were removed for testing after each pulse period. Sterile 13 mL dilution tubes were prepared; each test compound required one tube with 0.4 mL of LB broth and four tubes containing 0.5 mL of LB broth. To make the dilutions, a 0.050 mL aliquot of the irradiated solution of phage and test compound was added to the first dilution tube of […] of media then 0.050 mL of this solution was added to the second tube of 0.5 mL medium (1:10). The second solution was then diluted serially (1:10) into the remaining tubes. 100 µL of the original sample and each dilution are plated separately onto LB agar plates and incubated at 37 °C overnight. The colony forming units were then counted the following morning and the titer of the phage remaining after phototreatment was calculated based on the dilution factors.
The following controls were run: the "bacteria only" in which bacteria was not treated with test compound and not irradiated (listed as "starting titer" in the tables below); the "UV only" in which the bacteria was irradiated in the absence of test compound. Dark controls were not performed here for reasons set forth in Example 12 above.

The next series relates to Male Balb/c mice. To be noted: for bone marrow toxicity or micronucleus formation: experiment repeated using increased dose levels. The procedure: Male Balb/c mice were then injected with 0.1 ml of a compound solution via the tail vein. At least 3 mice were injected per dose level Saline only was used as a negative control. For a positive control, cyclophosphamide (cycloPP) was administered at a dose of 30 mg/kg. In the experimental group, the injections were repeated once per day for four days. In the positive control group, the sample was administered only once, on day three. On day 5, several microliters of blood were withdrawn from each subject and smeared on a glass slide. Cells were fixed in absolute methanol and stored in a slide rack.
For analysis, cells were stained with acridine orange and visualized under a fluorescence microscope by counting: (i) the number of reticulocytes per 5000 erythrocytes; and (ii) the number of micronucleated reticulocytes per 1000 reticulocytes. Reticulocytes were distinguished by their red fluorescence due to the presence of RNA. Micronuclei were distinguished by their green fluorescence due to the presence of DNA. The percentage of reticulocytes (%PCE) was then calculated. A decrease in the frequency of erythrocytes, represented by an increase in the percentage of reticulocytes, is an indication of bone marrow toxicity. The percentage of reticulocytes with micronuclei (%PCE with MN) was also calculated. An increase in %PCE with MN is a measure of elastogenicity.
After initial results were determined, the experiment was repeated using increased dose levels, until: (i) Micronucleus formation was seen; or (ii). Bone marrow toxicity was observed; or (iii) The lethal dose was reached; or (iv) A dose of 5 g/kg was administered.

The mark [1] stands for this setting: male, Balb/c, mouse, in vivo, 25 mg/kg, 5 day.
The mark [2] stands for this setting: male, Balb/c, mouse, in vivo, 40 mg/kg, 5 day.

As to `Cc1oc2c(C)c3oc(=O)cc(C)c3cc2c1CN` [AMT, 4'-Aminomethyl-4,5',8-trimethylpsoralen, reference compound], the “log kill of bacteria (Pseudomonas)” value with Pseudomonas came to 5.2 logs.

In the case of `Cc1oc2c(C)c3oc(=O)cc(C)c3cc2c1COCCN` [Compound 2, 4'-(4-amino-2-oxa)butyl-4,5',8-trimethylpsoralen], in the series with Pseudomonas, the “log kill of bacteria (Pseudomonas)” value was > 5.5 logs. Moreover, the “bone marrow toxicity or micronucleus formation” value in the series on Male Balb/c mice is “the acutely lethal dose was reached before there were any signs of bone marrow toxicity or micronucleus formation”. In addition, the “PCE + MN (%)” value turned out to be 0.25 ± 0.11% in the series with Male Balb/c mice (setting [1]) and 0.20 ± 0.14% in the series with Male Balb/c mice (setting [2]). Moreover, the “PCE/RBC (%)” value with Male Balb/c mice (setting [1]) was 3.46 ± 0.32%; with Male Balb/c mice (setting [2]) it was 3.08 ± 0.82%.

Regarding `Cc1oc2c(C)c3oc(=O)cc(C)c3cc2c1CNCCCCN` [Compound 6, 4'-(6-amino-2-aza)hexyl4,5',8-trimethylpsoralen], the “log kill of bacteria (Pseudomonas)” value with Pseudomonas is > 5.5 logs. Further, in the series on Male Balb/c mice (Dose 45 mg/kg, tail vein, once per day for four days, blood on day 5), the “PCE/RBC (%)” value came to 3.79 ± 10.41%. In addition, in the series on Male Balb/c mice, the “bone marrow toxicity or micronucleus formation” value is given as “the acutely lethal dose was reached before there were any signs of bone marrow toxicity or micronucleus formation”.

For `Cc1cc(=O)oc2c(C)c3oc(COCCN)c(C)c3cc12` [Compound 18, 5'-(4-amino-2-oxa)butyl-4,4',8-trimethylpsoralen], the “bone marrow toxicity or micronucleus formation” value in the series on Male Balb/c mice is listed as “the acutely lethal dose was reached before there were any signs of bone marrow toxicity or micronucleus formation”.
